IC50 data for one compound are collected here from ChEMBL document CHEMBL6096676, “TarIKGC: A Target Identification Tool Using Semantics-Enhanced Knowledge Graph Completion with Application to CDK2 Inhibitor Discovery” (J Med Chem, 2025).

Data set [1] has as its system PC-9. Description: Antiproliferative activity against human PC-9 cells measured after 48 to 72 hrs by CCK-8 method. On the technique in general: Tetrazolium dyes change colour on reduction, which living cells bring about.
The nature of data set [2]: Antiproliferative activity against HEK293T cells measured after 48 to 72 hrs by CCK-8 method. The conditions noted are these: human.
Data set [3] concerns Huh-7. As to the kind of experiment: Antiproliferative activity against human Huh-7 cells measured after 48 to 72 hrs by CCK-8 method.
The subject of data set [4] is MKN-28. Description: Antiproliferative activity against human MKN-28 cells measured after 48 to 72 hrs by CCK-8 method.
The nature of data set [5]: Antiproliferative activity against human THLE-2 cells measured after 48 to 72 hrs by CCK-8 method.
Data set [6] concerns AGS. Description: Antiproliferative activity against human AGS cells measured after 48 to 72 hrs by CCK-8 method.
The test system of data set [7] is SW-620. Description: Antiproliferative activity against human SW620 cells measured after 48 to 72 hrs by CCK-8 method.

Usually IC50 stands for the point on the concentration scale where inhibition reaches its midpoint. A high value points to weaker potency.

As to `COc1ccc(CNc2nc(N(CCO)CCO)nc3c2ncn3C(C)C)cc1`, the IC50 in data set [1] was determined as 7.28 µM; in data set [2] it was 11.5 µM; in data set [3], 5.78 µM; in data set [4] it was 8.73 µM; in data set [5], 15 µM; in data set [6], 6.84 µM. The same compound yielded an IC50 in data set [7] of 2070 nM.
